SMILES strings stand for the structures.

Type in all cases: functional
Test [1] deals with COLO 205. Nature of the test: Induction of apoptosis in human COLO205 cells at 10 uM after 24 hrs by Annexin V/propidium iodide staining-based fluorescence microscopy.
The subject of test [2] is COLO 205. As to the kind of experiment: Induction of apoptosis in human COLO205 cells assessed as DNA fragmentation at 10 uM.
Test [3] relates to COLO 205. Nature of the test: Induction of apoptosis in human COLO205 cells assessed as late apoptosis cells level at 10 uM after 24 hrs by Annexin V/propidium iodide staining-based fluorescence microscopy.
The subject of test [4] is COLO 205. Nature of the test: Induction of apoptosis in human COLO205 cells assessed as viable cells level at 10 uM after 24 hrs by Annexin V/propidium iodide staining-based fluorescence microscopy.
Test [5] has as its system COLO 205. Nature of the test: Induction of apoptosis in human COLO205 cells assessed as caspase 9 activation at 10 uM by FLICA.
Test [6] relates to COLO 205. Nature of the test: Induction of apoptosis in human COLO205 cells assessed as necrotic apoptosis cells level at 10 uM after 24 hrs by Annexin V/propidium iodide staining-based fluorescence microscopy.
Test [7] relates to COLO 205. As to the kind of experiment: Induction of apoptosis in human COLO205 cells assessed as early apoptosis cells level at 10 uM after 24 hrs by Annexin V/propidium iodide staining-based fluorescence microscopy.
The test system of test [8] is COLO 205. Nature of the test: Induction of apoptosis in human COLO205 cells assessed as caspase 8 activation at 10 uM by FLICA.
The test system of test [9] is COLO 205. As to the kind of experiment: Induction of apoptosis in human COLO205 cells assessed as caspase 3/7 activation at 10 uM by FLICA.

For the compound `CC[C@@]1(O)C(=O)OCc2c1cc1n(c2=O)Cc2cc3ccccc3nc2-1` [CAMPTOTHECIN], the Activity in the test with COLO 205 [1] worked out at 53%; in the test on COLO 205 [2] it was 80.5%; with COLO 205 [3], 17%; in the test with COLO 205 [4], 40%; with COLO 205 [5], 19.5%; in the test with COLO 205 [6] it was 0%. For the same compound, the figures for the Activity in the test on COLO 205 [7], in the test on COLO 205 [8] and in the test on COLO 205 [9] were 42%, 23.5% and 62%, respectively.

These data come from ChEMBL document CHEMBL3217615, “Novel 3,5-bis(arylidiene)-4-piperidone based monocarbonyl analogs of curcumin: anticancer activity evaluation and mode of action study” (2014).
